Experimental data from ChEMBL document CHEMBL5209587, “Membrane potential based assay for SLC23A1 using HEK-293 SLC23A1 OE cells” (2022).

Target: Solute carrier family 23 member 1 (Homo sapiens) (UniProt Q9UHI7)
Assay: Substrate uptake and inhibition of the Na(+)/L-Ascorbic Acid Transporter 1 (SVCT1, SLC23A1) as assessed by the fluorescent FLIPR membrane potential dye in HEK-293 JumpIN-SLC23A1 cells (PubChem AID: 1794810)
Type: functional, cell-based
Details: HEK293

Sequence of Solute carrier family 23 member 1 (Homo sapiens) (Q9UHI7 whole entry): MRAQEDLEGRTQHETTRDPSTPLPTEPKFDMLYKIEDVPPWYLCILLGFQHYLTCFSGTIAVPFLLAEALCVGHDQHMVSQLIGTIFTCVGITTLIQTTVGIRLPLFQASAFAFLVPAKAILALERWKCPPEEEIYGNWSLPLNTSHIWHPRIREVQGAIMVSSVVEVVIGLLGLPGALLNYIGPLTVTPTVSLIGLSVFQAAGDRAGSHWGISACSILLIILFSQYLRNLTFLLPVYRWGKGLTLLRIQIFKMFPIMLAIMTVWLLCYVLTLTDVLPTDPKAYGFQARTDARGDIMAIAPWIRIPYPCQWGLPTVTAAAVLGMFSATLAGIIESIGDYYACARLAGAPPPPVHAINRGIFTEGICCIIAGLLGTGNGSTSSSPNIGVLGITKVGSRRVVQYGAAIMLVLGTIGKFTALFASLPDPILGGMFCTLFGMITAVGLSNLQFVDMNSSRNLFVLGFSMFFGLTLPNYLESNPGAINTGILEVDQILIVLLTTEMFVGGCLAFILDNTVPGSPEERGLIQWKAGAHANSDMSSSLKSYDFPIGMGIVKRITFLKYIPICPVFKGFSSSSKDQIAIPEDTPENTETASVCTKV

O=C(CCc1ccc(O)cc1)c1c(O)cc(O)cc1O
inhibition: Inhibitor: Almost Complete Inhibition At A Concentration Of 300 Μm
